Assay results published in ChEMBL document CHEMBL5303304, “EUbOPEN Chemogenomics Library - IncuCyte” (2023).

Experiments:
Format in all cases: toxicity, cell-based
[1] = test system: HEK-293T; test: Incucyte cell viability with HEK293T; conditions: human, 10 µM, compound concentration 10 uM
[2] = test system: Fibroblast; test: Incucyte cell viability with human fibroblast; conditions: 10 µM, compound concentration 10 uM
[3] = test system: U2OS; test: Incucyte cell viability with U2OS; conditions: human, 10 µM, compound concentration 10 uM
Also: unitless GR value; below 1 slowed growth and below 0 cell loss.

COc1ccccc1S(=O)(=O)Nc1ccc2c(c1)CN(C)C(=O)N2
Growth Rate ([1]; 0 h, replicate number 1): 0.51 | Growth Rate ([1]; 0 h, replicate number 2): -0.37 | Growth Rate ([1]; 18 h, replicate number 2): 0.98 | Growth Rate ([1]; 24 h, replicate number 2): 0.9 | Growth Rate ([2]; 0 h, replicate number 2): 0.57 | Growth Rate ([2]; 6 h, replicate number 1): 0.3 | Growth Rate ([2]; 6 h, replicate number 2): -0.15 | Growth Rate ([2]; 12 h, replicate number 1): 0.4 | Growth Rate ([2]; 12 h, replicate number 2): 0.42 | Growth Rate ([2]; 18 h, replicate number 1): 0.37 | Growth Rate ([2]; 18 h, replicate number 2): 0.7 | Growth Rate ([2]; 24 h, replicate number 1): 0.79 | Growth Rate ([3]; 0 h, replicate number 1): -0.66 | Growth Rate ([3]; 0 h, replicate number 2): -0.75 | Growth Rate ([3]; 6 h, replicate number 1): 0.81 | Growth Rate ([3]; 6 h, replicate number 2): 0.5 | Growth Rate ([3]; 12 h, replicate number 1): 0.83

CNc1ncc2cc(-c3ccc(-c4cccc(C)n4)cc3Cl)c(=O)n(C[C@H]3OC[C@H](N)CO3)c2n1
Growth Rate ([1]; 0 h, replicate number 1): -0.96 | Growth Rate ([2]; 0 h, replicate number 1): 0.26 | Growth Rate ([2]; 0 h, replicate number 2): -0.44 | Growth Rate ([2]; 6 h, replicate number 2): 0.69 | Growth Rate ([2]; 12 h, replicate number 1): 0.36 | Growth Rate ([2]; 12 h, replicate number 2): 0.19 | Growth Rate ([2]; 18 h, replicate number 1): 0.37 | Growth Rate ([2]; 18 h, replicate number 2): 0.14 | Growth Rate ([2]; 24 h, replicate number 1): 0.41 | Growth Rate ([2]; 24 h, replicate number 2): 0.16 | Growth Rate ([3]; 0 h, replicate number 1): 0.31 | Growth Rate ([3]; 6 h, replicate number 2): 0.37 | Growth Rate ([3]; 12 h, replicate number 2): 0.83 | Growth Rate ([3]; 18 h, replicate number 2): 0.77 | Growth Rate ([3]; 24 h, replicate number 2): 0.53

CN1CCN(c2ccc(-n3cc(-c4ccncc4OCC4CCNCC4)cn3)cc2)CC1
Growth Rate ([1]; 0 h, replicate number 1): -0.6 | Growth Rate ([1]; 6 h, replicate number 1): -0.15 | Growth Rate ([1]; 6 h, replicate number 2): -0.17 | Growth Rate ([1]; 12 h, replicate number 1): 0.02 | Growth Rate ([1]; 12 h, replicate number 2): 0.09 | Growth Rate ([1]; 18 h, replicate number 1): 0.14 | Growth Rate ([1]; 18 h, replicate number 2): 0.13 | Growth Rate ([1]; 24 h, replicate number 1): 0.11 | Growth Rate ([1]; 24 h, replicate number 2): 0.07 | Growth Rate ([2]; 0 h, replicate number 1): 0.3 | Growth Rate ([2]; 0 h, replicate number 2): 0.21 | Growth Rate ([2]; 6 h, replicate number 1): 0.93 | Growth Rate ([2]; 6 h, replicate number 2): 0.33 | Growth Rate ([2]; 12 h, replicate number 1): 0.81 | Growth Rate ([2]; 12 h, replicate number 2): 0.22 | Growth Rate ([2]; 18 h, replicate number 1): 0.68 | Growth Rate ([2]; 18 h, replicate number 2): 0.19 | Growth Rate ([2]; 24 h, replicate number 1): 0.62 | Growth Rate ([2]; 24 h, replicate number 2): 0.28 | Growth Rate ([3]; 0 h, replicate number 2): 0.97 | Growth Rate ([3]; 6 h, replicate number 2): 0.51 | Growth Rate ([3]; 12 h, replicate number 1): 0.92 | Growth Rate ([3]; 12 h, replicate number 2): 0.4 | Growth Rate ([3]; 18 h, replicate number 1): 0.69 | Growth Rate ([3]; 18 h, replicate number 2): 0.31 | Growth Rate ([3]; 24 h, replicate number 1): 0.53 | Growth Rate ([3]; 24 h, replicate number 2): 0.16

CCc1c(-c2ccc3[nH]ncc3c2)cnc(N)c1-c1ccc(O)cc1
Growth Rate ([1]; 0 h, replicate number 1): -0.12 | Growth Rate ([1]; 6 h, replicate number 1): 0.85 | Growth Rate ([1]; 6 h, replicate number 2): 0.91 | Growth Rate ([1]; 12 h, replicate number 1): 0.8 | Growth Rate ([1]; 12 h, replicate number 2): 0.9 | Growth Rate ([1]; 18 h, replicate number 2): 0.91 | Growth Rate ([1]; 24 h, replicate number 1): 0.99 | Growth Rate ([1]; 24 h, replicate number 2): 0.88 | Growth Rate ([2]; 0 h, replicate number 2): -0.31 | Growth Rate ([2]; 6 h, replicate number 1): 0.91 | Growth Rate ([3]; 0 h, replicate number 2): -0.93 | Growth Rate ([3]; 6 h, replicate number 2): 0.84 | Growth Rate ([3]; 24 h, replicate number 1): 0.92

NC(=O)C1CCCc2c1[nH]c1ccc(Cl)cc21 (configuration not stated)
Growth Rate ([1]; 0 h, replicate number 1): 0.75 | Growth Rate ([1]; 0 h, replicate number 2): -0.98 | Growth Rate ([1]; 6 h, replicate number 2): 0.22 | Growth Rate ([1]; 12 h, replicate number 2): 0.53 | Growth Rate ([1]; 18 h, replicate number 2): 0.66 | Growth Rate ([1]; 24 h, replicate number 2): 0.79 | Growth Rate ([2]; 0 h, replicate number 2): 0.51 | Growth Rate ([2]; 12 h, replicate number 2): 0.9 | Growth Rate ([2]; 24 h, replicate number 2): 0.88 | Growth Rate ([3]; 0 h, replicate number 1): 0.85 | Growth Rate ([3]; 0 h, replicate number 2): 0.68 | Growth Rate ([3]; 6 h, replicate number 1): 0.7 | Growth Rate ([3]; 12 h, replicate number 1): 1 | Growth Rate ([3]; 18 h, replicate number 1): 0.88 | Growth Rate ([3]; 24 h, replicate number 1): 1 | Growth Rate ([3]; 24 h, replicate number 2): 0.96

Cc1ncsc1-c1ccc(CNC(=O)[C@@H]2C[C@@H](O)CN2C(=O)[C@@H](NC(=O)CCCCNC(=O)c2ccc(-c3ccc(N4CCN(C)CC4)c(NC(=O)c4c[nH]c(=O)cc4C(F)(F)F)c3)cc2)C(C)(C)C)cc1
Growth Rate ([1]; 0 h, replicate number 1): -0.12 | Growth Rate ([1]; 6 h, replicate number 2): 0.8 | Growth Rate ([1]; 18 h, replicate number 2): 0.86 | Growth Rate ([1]; 24 h, replicate number 2): 0.72 | Growth Rate ([2]; 0 h, replicate number 1): 0.97 | Growth Rate ([2]; 0 h, replicate number 2): 0.64 | Growth Rate ([2]; 6 h, replicate number 1): 0.29 | Growth Rate ([2]; 12 h, replicate number 1): 0.65 | Growth Rate ([2]; 12 h, replicate number 2): 0.74 | Growth Rate ([2]; 18 h, replicate number 1): 0.33 | Growth Rate ([2]; 18 h, replicate number 2): 0.86 | Growth Rate ([2]; 24 h, replicate number 1): 0.46 | Growth Rate ([3]; 0 h, replicate number 1): 0.71 | Growth Rate ([3]; 6 h, replicate number 1): 0.86 | Growth Rate ([3]; 6 h, replicate number 2): 0.89 | Growth Rate ([3]; 12 h, replicate number 2): 0.84 | Growth Rate ([3]; 18 h, replicate number 1): 0.96 | Growth Rate ([3]; 18 h, replicate number 2): 0.79 | Growth Rate ([3]; 24 h, replicate number 1): 0.61 | Growth Rate ([3]; 24 h, replicate number 2): 0.71

O=C(CNCc1cc2ccccc2[nH]1)N[C@H]1CC[C@@H](c2nc3ccccc3[nH]2)CC1
Growth Rate ([1]; 0 h, replicate number 1): -0.1 | Growth Rate ([1]; 0 h, replicate number 2): -0.87 | Growth Rate ([1]; 6 h, replicate number 2): 0.27 | Growth Rate ([1]; 12 h, replicate number 2): 0.76 | Growth Rate ([1]; 18 h, replicate number 2): 0.77 | Growth Rate ([1]; 24 h, replicate number 2): 0.89 | Growth Rate ([2]; 0 h, replicate number 2): 0.8 | Growth Rate ([2]; 6 h, replicate number 1): 0.9 | Growth Rate ([2]; 6 h, replicate number 2): 0.7 | Growth Rate ([2]; 12 h, replicate number 1): 0.79 | Growth Rate ([2]; 12 h, replicate number 2): 0.69 | Growth Rate ([2]; 18 h, replicate number 1): 0.78 | Growth Rate ([2]; 24 h, replicate number 1): 0.78 | Growth Rate ([3]; 0 h, replicate number 1): -0.05 | Growth Rate ([3]; 6 h, replicate number 1): 0.65 | Growth Rate ([3]; 6 h, replicate number 2): 1 | Growth Rate ([3]; 12 h, replicate number 1): 0.55 | Growth Rate ([3]; 18 h, replicate number 1): 0.82 | Growth Rate ([3]; 24 h, replicate number 1): 0.8

COc1cc(-c2cncc(-c3ccc(N4CCN(C(C)C)CC4)cc3)c2C)cc(F)c1C(=O)N1CCCC1
Growth Rate ([1]; 0 h, replicate number 1): -0.5 | Growth Rate ([1]; 0 h, replicate number 2): -0.2 | Growth Rate ([1]; 24 h, replicate number 2): 0.92 | Growth Rate ([2]; 0 h, replicate number 1): -0.08 | Growth Rate ([2]; 0 h, replicate number 2): 0.49 | Growth Rate ([2]; 6 h, replicate number 2): -0.22 | Growth Rate ([2]; 12 h, replicate number 2): 0.11 | Growth Rate ([2]; 18 h, replicate number 1): 0.73 | Growth Rate ([2]; 18 h, replicate number 2): 0.27 | Growth Rate ([2]; 24 h, replicate number 1): 0.76 | Growth Rate ([2]; 24 h, replicate number 2): 0.4 | Growth Rate ([3]; 12 h, replicate number 2): 1 | Growth Rate ([3]; 18 h, replicate number 2): 0.99 | Growth Rate ([3]; 24 h, replicate number 2): 0.89

CC(=O)N1CCN([C@H]2CCC[C@@H](NC(=O)c3cc4c(F)ccc(C)c4[nH]3)C2)CC1.O=C(O)C(F)(F)F
Growth Rate ([1]; 0 h, replicate number 1): 0.94 | Growth Rate ([1]; 0 h, replicate number 2): -0.6 | Growth Rate ([1]; 6 h, replicate number 1): 0.9 | Growth Rate ([1]; 6 h, replicate number 2): 0.46 | Growth Rate ([1]; 12 h, replicate number 1): 0.75 | Growth Rate ([1]; 12 h, replicate number 2): 0.4 | Growth Rate ([1]; 18 h, replicate number 2): 0.68 | Growth Rate ([1]; 24 h, replicate number 2): 0.48 | Growth Rate ([2]; 0 h, replicate number 1): -0.07 | Growth Rate ([2]; 0 h, replicate number 2): -0.08 | Growth Rate ([2]; 6 h, replicate number 2): 0.42 | Growth Rate ([2]; 12 h, replicate number 2): 0.88 | Growth Rate ([2]; 18 h, replicate number 2): 0.88 | Growth Rate ([2]; 24 h, replicate number 2): 0.9 | Growth Rate ([3]; 0 h, replicate number 1): 0.28 | Growth Rate ([3]; 0 h, replicate number 2): 0.78 | Growth Rate ([3]; 6 h, replicate number 2): 0.95 | Growth Rate ([3]; 12 h, replicate number 1): 0.84 | Growth Rate ([3]; 12 h, replicate number 2): 0.96 | Growth Rate ([3]; 18 h, replicate number 2): 0.94 | Growth Rate ([3]; 24 h, replicate number 1): 0.99 | Growth Rate ([3]; 24 h, replicate number 2): 0.88

CC(=O)O.Cc1cc2c(ncn2C2(C)CN(C(=O)c3ccn(CC4CCN([C@H]5C=CCCCC5)CC4)c3)C2)c(N)n1
Growth Rate ([1]; 0 h, replicate number 1): -0.66 | Growth Rate ([2]; 0 h, replicate number 2): 0.45 | Growth Rate ([2]; 6 h, replicate number 2): 0.25 | Growth Rate ([2]; 12 h, replicate number 1): 0.9 | Growth Rate ([2]; 12 h, replicate number 2): 0.83 | Growth Rate ([2]; 18 h, replicate number 1): 0.86 | Growth Rate ([2]; 18 h, replicate number 2): 0.98 | Growth Rate ([3]; 0 h, replicate number 1): 0.51 | Growth Rate ([3]; 6 h, replicate number 1): 0.96 | Growth Rate ([3]; 24 h, replicate number 1): 0.75

CN1CCc2cc(Nc3ncc(C(F)(F)F)c(NCc4cc[nH]n4)n3)ccc2C1
Growth Rate ([1]; 0 h, replicate number 1): -0.94 | Growth Rate ([1]; 12 h, replicate number 2): 0.73 | Growth Rate ([1]; 18 h, replicate number 1): 0.42 | Growth Rate ([1]; 18 h, replicate number 2): 0.47 | Growth Rate ([1]; 24 h, replicate number 1): 0.29 | Growth Rate ([1]; 24 h, replicate number 2): 0.14 | Growth Rate ([2]; 0 h, replicate number 1): -0.24 | Growth Rate ([2]; 0 h, replicate number 2): -0.64 | Growth Rate ([3]; 6 h, replicate number 2): 0.87 | Growth Rate ([3]; 12 h, replicate number 2): 0.56 | Growth Rate ([3]; 18 h, replicate number 1): 0.84 | Growth Rate ([3]; 18 h, replicate number 2): 0.37 | Growth Rate ([3]; 24 h, replicate number 1): 0.58 | Growth Rate ([3]; 24 h, replicate number 2): 0.22
